Assay results reported in US10874743B2, “IRAK degraders and uses thereof” (Kymera Therapeutics, Inc., priority 2017, dated 2020).

Molecular target: T1, IRAK4 (Homo sapiens, UniProt Q9NWZ3)
T1 sequence (Q9NWZ3 1-460): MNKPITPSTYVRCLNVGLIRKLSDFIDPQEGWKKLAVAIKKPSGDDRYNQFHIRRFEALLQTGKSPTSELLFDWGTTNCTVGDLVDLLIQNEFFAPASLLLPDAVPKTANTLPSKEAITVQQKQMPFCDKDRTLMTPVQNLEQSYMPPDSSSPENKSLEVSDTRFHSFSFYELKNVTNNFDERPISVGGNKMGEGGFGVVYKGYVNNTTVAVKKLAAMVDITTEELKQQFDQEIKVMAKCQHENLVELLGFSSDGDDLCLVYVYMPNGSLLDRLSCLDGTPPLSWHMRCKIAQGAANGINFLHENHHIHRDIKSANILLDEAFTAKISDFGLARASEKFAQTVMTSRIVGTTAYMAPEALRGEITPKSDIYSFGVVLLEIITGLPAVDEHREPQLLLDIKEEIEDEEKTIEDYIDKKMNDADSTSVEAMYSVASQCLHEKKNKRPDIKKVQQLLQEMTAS
Assay: OCI-LY-10 degradation assay (western blot, % IRAK4 degraded after 4 hours)
Format: cell-based
Parameters: endogenous in cells; host or cells: OCI-LY10
Conditions: OCI-LY10 cells, IRAK4 degraded after 4 hours, western blot
How it was run: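 IRAK4 loss after 4 h at 37° C was scored A (>50%), B (>20-50%) or C (<20%) from infrared western blots of RIPA lysates, 20-25 μg protein per lane. Compound was applied at 0.003-10 μM final to OCI-LY10 cells cultured in RPMI-1640 with 20% FBS and 55 μM 2-ME.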

OCI-LY10 % IRAK4 Degradation	SMILES
C (<20% degradation)	Cc1ncsc1-c1ccc(CNC(=O)C2C[C@@H](O)CN2C(=O)[C@@H](NC(=O)COCCOCCOCCOCCOC(C)(C)C(F)CNC(=O)c2cnc(-n3ncc4cc(C#N)cnc43)cc2NC2CC2)C(C)(C)C)cc1 (stereo partly drawn) [I-118, 6-(5-Cyanopyrazolo[3,4-b]pyridin-1-yl)-4-(cyclopropylamino)-N-[2-fluoro-3-[2-[2-[2-[2-[2-[[(1S)-1-[(4R)-4-hydroxy-2-[[4-(4-methylthiazol-5-yl)phenyl]methylcarbamoyl]pyrrolidine-1-carbonyl]-2,2-dimethyl-propyl]amino]-2-oxo-ethoxy]ethoxy]ethoxy]ethoxy]ethoxy]-3-methyl-butyl]pyridine-3-carboxamide]
C (<20% degradation)	Cc1ncsc1-c1ccc(CNC(=O)C2C[C@@H](O)CN2C(=O)[C@@H](NC(=O)COCCOCCOCCOCCOC(C)C(F)CNC(=O)c2cnc(-n3ncc4cc(C#N)cnc43)cc2NC2CC2)C(C)(C)C)cc1 (stereo partly drawn) [I-121]
C (<20% degradation)	Cc1ncsc1-c1ccc(CNC(=O)[C@@H]2C[C@@H](O)CN2C(=O)[C@@H](NC(=O)COCCOCCOCCOCCOCC(=O)N2CCN([C@H]3CC[C@H](Oc4ncnc5sc6c(c45)[C@@H](C[C@H](O)C(N)=O)CC6)CC3)CC2)C(C)(C)C)cc1 [I-123]
C (<20% degradation)	Cc1ncsc1-c1ccc(CNC(=O)[C@@H]2C[C@@H](O)CN2C(=O)[C@@H](NC(=O)COCCOCCOCCOCCOCCN2CCN([C@H]3CC[C@H](Oc4ncnc5sc6c(c45)[C@@H](C[C@H](O)C(N)=O)CC6)CC3)CC2)C(C)(C)C)cc1 [I-124, (2S,4R)-1-[(2S)-2-[[2-[2-[2-[2-[2-[2-[4-[4-[[(8R)-8-[(2S)-3-amino-2-hydroxy-3-oxo-propyl]-7,8-dihydro-6H-cyclopenta[4,5]thieno[1,2-c]pyrimidin-1-yl]oxy]cyclohexyl]piperazin-1-yl]ethoxy]ethoxy]ethoxy]ethoxy]ethoxy]acetyl]amino]-3,3-dimethyl-butanoyl]-4-hydroxy-N-[[4-(4-methylthiazol-5-yl)phenyl]methyl]pyrrolidine-2-carboxamide]
C (<20% degradation)	Cc1ncsc1-c1ccc(CNC(=O)[C@@H]2C[C@@H](O)CN2C(=O)[C@@H](NC(=O)COCCCCCCCCNC(=O)c2ccc(-n3cc(NC(=O)c4coc(-c5ccnc(NCC(F)(F)F)c5)n4)c(C(N)=O)n3)cc2)C(C)(C)C)cc1 [I-125, N-[3-carbamoyl-1-[4-[8-[2-[[(1S)-1-[(2S,4R)-4-hydroxy-2-[[4-(4-methylthiazol-5-yl)phenyl]methylcarbamoyl]pyrrolidine-1-carbonyl]-2,2-dimethyl-propyl]amino]-2-oxo-ethoxy]octylcarbamoyl]phenyl]pyrazol-4-yl]-2-[2-(2,2,2-trifluoroethylamino)-4-pyridyl]oxazole-4-carboxamide]
B (>20-50% degradation)	CC[C@@H]1[C@H](F)C(=O)N[C@@H]1COc1ncc(C#Cc2ccc(C(=O)NCCOCCOCCOCCNc3cccc4c3C(=O)N(C3CCC(=O)NC3=O)C4=O)cc2)c2cc(C(N)=O)c(OC)cc12 (stereo partly drawn) [I-126, 4-[2-[4-[2-[2-[2-[2-[[2-(2,6-Dioxo-3-piperidyl)-1,3-dioxo-isoindolin-4-yl]amino]ethoxy]ethoxy]ethoxy]ethylcarbamoyl]phenyl]ethynyl]-1-[[(2S,3S,4S)-3-ethyl-4-fluoro-5-oxo-pyrrolidin-2-yl]methoxy]-7-methoxy-isoquinoline-6-carboxamide]
C (<20% degradation)	CC(C)(OCCNCCOCCNc1cccc2c1C(=O)N(C1CCC(=O)NC1=O)C2=O)C(F)CNC(=O)c1cnc(-n2ncc3cc(C#N)cnc32)cc1NC1CC1 (stereo not drawn) [I-129]
C (<20% degradation)	CC(C)(OCCOCCNCCOCCNc1cccc2c1C(=O)N(C1CCC(=O)NC1=O)C2=O)C(F)CNC(=O)c1cnc(-n2ncc3cc(C#N)cnc32)cc1NC1CC1 (stereo not drawn) [I-131]
B (>20-50% degradation)	NC(=O)c1nn(-c2cccc(C(=O)NCCOCCOCCOCCOCCNc3cccc4c3C(=O)N(C3CCC(=O)NC3=O)C4=O)c2)cc1NC(=O)c1coc(-c2ccnc(NCC(F)(F)F)c2)n1 (stereo not drawn) [I-136]
B (>20-50% degradation)	NC(=O)c1nn(-c2ccc(C(=O)NCCOCCOCCNc3cccc4c3C(=O)N(C3CCC(=O)NC3=O)C4=O)cc2)cc1NC(=O)c1cccc(-c2ccnc(NCC(F)(F)F)c2)n1 (stereo not drawn) [I-137]
A (>50% degradation)	NC(=O)c1nn(-c2ccc(C(=O)NCCOCCOCCNc3cccc4c3C(=O)N(C3CCC(=O)NC3=O)C4=O)cc2)cc1NC(=O)c1coc(-c2ccnc(NCC3CC3)c2)n1 (stereo not drawn) [I-138]
B (>20-50% degradation)	NC(=O)c1nn(C2CCC(C(=O)NCCOCCOCCNc3cccc4c3C(=O)N(C3CCC(=O)NC3=O)C4=O)CC2)cc1NC(=O)c1coc(-c2ccnc(NCC(F)(F)F)c2)n1 (stereo not drawn) [I-139]
B (>20-50% degradation)	NC(=O)c1nn(-c2ccc(C(=O)NCCOCCOCCNc3cccc4c3C(=O)N(C3CCC(=O)NC3=O)C4=O)cc2)cc1NC(=O)c1coc(-c2ccncc2)n1 (stereo not drawn) [I-140]
B (>20-50% degradation)	N[C@@H]1CCCC[C@@H]1Nc1ccn2nc(-c3cn(-c4ccc(C(=O)NCCOCCOCCNc5cccc6c5C(=O)N(C5CCC(=O)NC5=O)C6=O)cc4)nc3C(F)F)cc2n1 (stereo partly drawn) [I-142]
B (>20-50% degradation)	NC(=O)c1nn(-c2ccc(C(=O)NCCOCCOCCNc3cccc4c3C(=O)N(C3CCC(=O)NC3=O)C4=O)nc2)cc1NC(=O)c1coc(-c2ccnc(NCC(F)(F)F)c2)n1 (stereo not drawn) [I-143]
A (>50% degradation)	NC(=O)c1nn(-c2ccc(C(=O)NCCOCCOCCCc3cccc4c3C(=O)N(C3CCC(=O)NC3=O)C4=O)cc2)cc1NC(=O)c1coc(-c2ccnc(NCC(F)(F)F)c2)n1 (stereo not drawn) [I-147]
B (>20-50% degradation)	NC(=O)c1nn(-c2ccc(C(=O)NCCOCCOCCOCCOCCCc3ccc4c(c3)C(=O)N(C3CCC(=O)NC3=O)C4=O)cc2)cc1NC(=O)c1coc(-c2ccnc(NCC(F)(F)F)c2)n1 (stereo not drawn) [I-148]
A (>50% degradation)	NC(=O)c1nn(-c2ccc(C(=O)NCCOCCOCCOCCOCC#Cc3ccc4c(c3)C(=O)N(C3CCC(=O)NC3=O)C4=O)cc2)cc1NC(=O)c1coc(-c2ccnc(NCC(F)(F)F)c2)n1 (stereo not drawn) [I-149]
A (>50% degradation)	NC(=O)c1nn(-c2ccc(C(=O)NCC3CN(CCOCCNc4cccc5c4C(=O)N(C4CCC(=O)NC4=O)C5=O)CCO3)cc2)cc1NC(=O)c1coc(-c2ccnc(NCC(F)(F)F)c2)n1 (stereo not drawn) [I-151]
C (<20% degradation)	NC(=O)[C@@H](O)C[C@H]1CCc2sc3ncnc(O[C@H]4CC[C@H](N5CCN(C(=O)COCCNc6cccc7c6C(=O)N(C6CCC(=O)NC6=O)C7=O)CC5)CC4)c3c21 (stereo partly drawn) [I-153]

SMILES	OCI-LY10 % IRAK4 Degradation
NC(=O)[C@@H](O)C[C@H]1CCc2sc3ncnc(OC4CCC(N5CCN(C(=O)COCCOCCNc6cccc7c6C(=O)N(C6CCC(=O)NC6=O)C7=O)CC5)CC4)c3c21 (stereo partly drawn) [I-160, (2S)-3-[(8R)-1-[4-[4-[2-[2-[2-[[2-(2,6-dioxo-3-piperidyl)-1,3-dioxo-isoindolin-4-yl]amino]ethoxy]ethoxy]acetyl]piperazin-1-yl]cyclohexoxyl-7,8-dihydro-6H-cyclopenta[4,5]thieno 1,2-c]pyrimidin-8-yl]-2-hydroxy-propanamide]	C (<20% degradation)
